The term IC50 denotes the point on the concentration scale where inhibition reaches its midpoint.

Consider ten molecules from US8859572B2, “Sulfone substituted 2,3-dihydroimidazo [1,2-C] quinazoline derivatives useful for treating hyper-proliferative disorders and diseases with angiogenesis” (Bayer Intellectual Property GmbH, priority 2008, dated 2014).

The target in the experiment is T1, PI3Kβ (recombinant truncated form (ΔN1-108) of the human p110β subunit of PI3K) (Homo sapiens, UniProt P42338).
T1 construct: His6 (N); made in house; host or cells: Spodoptera frugiperda Sf9 insect cells
T1 sequence (P42338 109-1070): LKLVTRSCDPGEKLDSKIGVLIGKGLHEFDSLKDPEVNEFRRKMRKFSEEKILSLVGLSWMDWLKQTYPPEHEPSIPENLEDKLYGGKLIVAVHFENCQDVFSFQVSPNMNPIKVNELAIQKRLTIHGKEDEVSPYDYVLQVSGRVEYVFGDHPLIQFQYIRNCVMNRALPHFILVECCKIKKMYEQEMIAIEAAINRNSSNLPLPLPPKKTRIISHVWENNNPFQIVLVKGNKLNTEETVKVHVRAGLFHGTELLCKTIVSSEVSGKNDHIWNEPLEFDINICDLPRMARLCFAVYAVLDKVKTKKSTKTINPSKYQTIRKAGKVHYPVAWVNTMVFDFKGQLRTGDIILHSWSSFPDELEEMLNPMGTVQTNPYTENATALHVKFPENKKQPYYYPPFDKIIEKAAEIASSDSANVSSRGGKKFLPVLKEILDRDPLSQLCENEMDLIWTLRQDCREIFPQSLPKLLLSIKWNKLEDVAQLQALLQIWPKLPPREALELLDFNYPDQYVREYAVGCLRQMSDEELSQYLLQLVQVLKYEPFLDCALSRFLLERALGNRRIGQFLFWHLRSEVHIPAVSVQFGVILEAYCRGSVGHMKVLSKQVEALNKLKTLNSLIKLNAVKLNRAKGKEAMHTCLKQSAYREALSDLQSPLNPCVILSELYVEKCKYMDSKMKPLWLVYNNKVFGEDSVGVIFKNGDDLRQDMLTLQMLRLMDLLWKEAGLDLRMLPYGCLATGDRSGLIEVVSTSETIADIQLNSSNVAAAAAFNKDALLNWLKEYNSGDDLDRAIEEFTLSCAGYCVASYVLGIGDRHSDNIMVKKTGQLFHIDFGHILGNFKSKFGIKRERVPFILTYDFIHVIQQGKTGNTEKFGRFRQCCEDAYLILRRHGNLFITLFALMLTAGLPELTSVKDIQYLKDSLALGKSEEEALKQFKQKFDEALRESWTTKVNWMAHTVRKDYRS
The experiment is described as follows: Solid-phase lipid kinase assay of PI3Kβ. The class given is biochemical. The conditions noted are these: 7.5 ng protein/well, final 10 μM ATP, 2 h at rt. The method, then:
To assess inhibition of PI3Kα by compounds, the Maxisorp™ plates were coated with 50 μL/well of a solution containing 50 μg/ml PtdIns and 50 μg/ml PtdSer dissolved in chloroform:ethanol (3:7). The plates were subsequently air-dried by incubation for at least 2 h in a fume hood. The reaction was set up by mixing 25 μL/well of assay buffer 2×(100 mM MOPSO/NaOH, 0.2 M NaCl, pH 7.0, 8 mM MgCl2, 2 mg/mL BSA (fatty acid-free)), and 7.5 ng/well PI3Kα in the lipid pre-coated plate. Test compounds at different concentrations (0.0, 0.003, 0.01 0.03, 0.1, 0.3, 1.0, 3.0 and 10 μM) were added in 2% DMSO. The reaction was initiated by adding 20 μL/well of ATP mix (final 10 μM ATP; 0.05 μCi/well [γ^33P]ATP). After incubation at rt for 2 h, the reaction was terminated by adding 50 μl/well stop solution (50 mM EDTA, pH 8.0). The plate was then washed twice with Tris-buffered saline (TBS, pH 7.4). MicroScint PS™ (PACKARD) scintillation mix was added at 100 μL/well, and radioactivity was counted using a TopCount™ (PACKARD) scintillation counter.
The inhibition percent at each concentration of compound was calculated, and IC50 values were determined from the inhibition of curve.
A recombinant truncated form (ΔN1-108) of the human p110β subunit of PI3K with an N-terminal His6-Tag was expressed in S. frugiperda 9 insect cells. Recombinant human PI3Kγ (full length human PI3K p110γ fused with a His6-tag at the C-terminus expressed in S. frugiperda 9 insect cells) was obtained from ALEXIS BIOCHEMICALS (#201-055-0010; San Diego, Calif.).
Kinase assays using recombinant truncated p110β or the full length p110γ were performed in a similar manner as described in the determination of IC50 values of compounds in the kinase assay of PI3Kα except that these isoforms were assayed using 7.5 ng and 25.0 ng of protein/well, respectively.

Take `O=C(NC1=Nc2cc(OCCCS(=O)(=O)N3CCOCC3)ccc2C2=NCCN12)c1cncnc1` [Example 28, N-{8-[3-(morpholin-4-ylsulfonyl)propoxy]-2,3-dihydroimidazo[1,2-c]quinazolin-5-yl}pyrimidine-5-carboxamide]: the IC50 fell in the range of 100 to 3000 nM.
Take `Nc1ncc(C(=O)NC2=Nc3cc(OCCCS(=O)(=O)N4CCOCC4)ccc3C3=NCCN23)cn1` [Example 29, 2-amino-N-{8-[3-(morpholin-4-ylsulfonyl)propoxy]-2,3-dihydroimidazo[1,2-c]quinazolin-5-yl}pyrimidine-5-carboxamide]: the IC50 was < 100 nM.
Take `Nc1ccc(C(=O)NC2=Nc3cc(OCCCS(=O)(=O)N4CCOCC4)ccc3C3=NCCN23)cn1` [Example 30, 6-amino-N-{8-[3-(morpholin-4-ylsulfonyl)propoxy]-2,3-dihydroimidazo[1,2-c]quinazolin-5-yl}nicotinamide]: the IC50 was in the range of 100 to 3000 nM.
As for `COc1c(OCCOCCNS(C)(=O)=O)ccc2c1N=C(NC(=O)c1cccnc1)N1CCN=C21` [Example 31, N-[7-methoxy-8-(2-{2-[(methylsulfonyl)amino]ethoxy}ethoxy)-2,3-dihydroimidazo[1,2-c]quinazolin-5-yl]nicotinamide], the figure is < 100 nM.
As for `CCCS(=O)(=O)NCCOCCOc1ccc2c(c1OC)N=C(NC(=O)c1cccnc1)N1CCN=C21` [Example 32], the figure is < 100 nM; as for `COc1c(OCCOCCNS(=O)(=O)c2ccccc2)ccc2c1N=C(NC(=O)c1cccnc1)N1CCN=C21` [Example 33, N-[7-methoxy-8-(2-{2-[(phenylsulfonyl)amino]ethoxy}ethoxy)-2,3-dihydroimidazo[1,2-c]quinazolin-5-yl]nicotinamide], < 100 nM.
With `COc1c(OCCOCCNS(=O)(=O)c2ccc(C)cc2)ccc2c1N=C(NC(=O)c1cccnc1)N1CCN=C21` [Example 34, N-{7-methoxy-8-[2-(2-{[(4-methylphenyl)sulfonyl]amino}ethoxy)ethoxy]-2,3-dihydroimidazo[1,2-c]quinazolin-5-yl}nicotinamide], the IC50 is < 100 nM.
The same measure for `CCS(=O)(=O)NCCCOc1ccc2c(c1OC)N=C(NC(=O)c1cccnc1)N1CCN=C21` [Example 35, N-(8-[3-[(ethylsulfonyl)amino]propoxy]-7-methoxy-2,3-dihydroimidazo[1,2-c]quinazolin-5-yl)nicotinamide]: < 100 nM.
Regarding `CS(=O)(=O)c1ccc(COc2c(OCCCN3CCOCC3)ccc3c2N=C(NC(=O)c2cccnc2)N2CCN=C32)cc1` [Example 36, N-[7-{[4-(methylsulfonyl)benzyl]oxy}-8-(3-morpholin-4-ylpropoxy)-2,3-dihydroimidazo[1,2-c]quinazolin-5-yl]nicotinamide], the IC50 is < 100 nM.
In the case of `CS(=O)(=O)Oc1c(OCCCN2CCOCC2)ccc2c1N=C(NC(=O)c1cccnc1)N1CCN=C21` [Example 37, 8-(3-morpholin-4-ylpropoxy)-5-[(pyridin-3-ylcarbonyl)amino]-2,3-dihydroimidazo[1,2-c]quinazolin-7-yl methanesulfonate], the 50% inhibitory concentration (IC50) is < 100 nM.
